Data published in paper PMC6627374, “Effects of the Pentapeptide P33 on Memory and Synaptic Plasticity in APP/PS1 Transgenic Mice: A Novel Mechanism Presenting the Protein Fe65 as a Target” (International Journal of Molecular Sciences, 2019).
Where a SMILES comes first, the peptide text is derived from it.

What was measured:
Fe65 = test: Western blot, Fe65 level in brain; format: in vivo, mouse; conditions: APP/PS1 mice; 5 mg∙kg^−1 i.p., five days per week, six months; HC and CTX
Experimental: (§1) For this study, three-month-old male and female WT and APP/PS1 mice (n = 37) were used. Four groups were defined: WT-vehicle (physiological saline) (male n = 4; female n = 6), WT-P33 (male n = 6; female n = 5), APP/PS1-vehicle (male n = 3; female n = 5), and APP/PS1-P33 (male n = 6; female n = 2). Animals were subjected to intraperitoneal (i.p.) injections of P33 (5 mg∙kg^−1) for five days per week, over a course of six months. The mice were kept in groups under constant temperature (23 ± 0.5 °C), lighting (12-h/12-h light/dark cycle, lights on at 7:00 a.m.), and humidity (~50%). Standard mouse chow and tap water were supplied ad libitum. All behavioral experiments were performed in the light period. Handling was done daily at the same time.
(§2) Nine-month-old mice (three animals per group) were euthanized via cervical dislocation. […] To quantify the level of Aβ in the mice, we used a sandwich ELISA Kit (Innotest Amyloid-[…]) from Innogenetics (Gent, Belgium), following the instructions of the manufacturer. The absorbance values were measured at 450 nm on a 96-well plate reader (NOVOstar OPTIMA, BMG Labtech, Offenburg, Germany). […]
(§3) The results of spine density and immunohistochemistry experiments were calculated with one-way ANOVA followed by Fisher’s LSD post hoc tests. […] Data were analyzed with SPSS (IBM SPSS Statistics 24), and were expressed as the mean ± standard error of the mean (SEM). […]

[1] = system: APP/PS1 mice and C57BL/6 wild-type (WT) mice; test: Morris water maze (MWM), spatial learning and memory; format: in vivo, mouse; conditions: for intersection area with vehicle group (bootstrap 2D contours): vehicle vs P33, 90% contours
Experimental: as §1
The experiment lasted for five days, and was conducted on every occasion in the light period. Mice were tested twice every day when they were allowed to swim until they found the platform. […] Four different starting points were used during the experiment; starting points were changed randomly during the tests. Trajectories of the mice were recorded with a video camera fixed on the ceiling, equipped with the software EthoVision XT8 (Noldus Information Technology, The Netherlands, 2011). The tracking system calculated the time to reach the platform, swimming speed, length of the swimming path (distance), and percentage time spent in each of the four virtual quadrants during the trials.
Behavioral data were analyzed by mixed ANOVA, followed by Fisher’s LSD post hoc tests for multiple comparisons. The classical and modified ANOVA data evaluation methods applied for the raw measurements could detect only some significant effects without explaining their positions. Convenient post hoc analysis methods, like Student’s t-statistics, need a Gaussian distribution of the analysis data. Additionally, only the probability of the false positive decision error can be set up, and the probability of the false negative decision error remains unknown. Therefore, we developed and used nonparametric statistics. The one-response variable data (swimming times) were used to generate a two-variable model: (1) the reciprocal of the slope of the fitted straight line between the swimming time and the days (its negative values close to zero indicate an improvement in the memory and learning functions of the mice from day to day); (2) swimming time data of the last day (closeness to zero indicates an effective learning process). The two variables were combined, and evaluating them together gave more reliable multiple statistical results. […]

human APP = test: Western blot, APP level in brain (6E10); format: in vivo, human APP in APP/PS1 transgenic mice; conditions: APP/PS1 mice; 5 mg∙kg^−1 i.p., five days per week, six months; HC and CTX
Experimental: as §1, §2, §3

C[C@@H](N)C(=O)N1CCC[C@@H]1C(=O)N[C@H](C)C(=O)N1CCC[C@@H]1C(=O)N[C@H](CCC(=O)O)C(N)=O [P33] (HELM PEPTIDE1{[dA].[dP].[dA].[dP].[dE].[am]}$$$$V2.0)
Fe65 level, effect of P33 (in words) (Fe65): could not be considerably changed by the treatment with P33
permutation test of swimming times vs randomness (in words) ([1]; APP/PS1-P33, 50,000 resamples, 1/m and yend): significant improvement, as the randomness of the measurements was drastically decreased
intersection area with vehicle group (bootstrap 2D contours) ([1]; APP/PS1 groups, % of total areas of both, 50,000 resamples): approximately 2%
latency to find the platform, effect of P33 (in words) ([1]; APP/PS1 mice, 5 mg∙kg^−1 i.p., six months, MWM five days): seemed to have a positive effect on their learning abilities
intersection area with vehicle group (bootstrap 2D contours) ([1]; WT groups, % of total area of P33 treatment (vehicle 32%), 50,000 resamples): 89%
APP level, effect of P33 (in words) (human APP): did not change with the P33-treatment
